# Data reported in US11865125B2, “APKC inhibitors and methods of treating a neurodegenerative disease or disorder” (UNIVERSITY OF SOUTH FLORIDA, priority 2016, dated 2024).
# Entries after “also recorded” stand apart in the source; their conditions may differ.
# Key:
# [1] = cited from earlier work
# [2] = target: T1, 70 kDa PKC-λ/ι (Mus musculus, UniProt Q62074); test: brain aPKC (PKC-λ/ι) phosphorylation/activity in mice; assay type: in vivo
# T1 construct: insulin-sensitive 70 kDa PKC-λ/ι in brains of Het-MλKO mice; from tissue; host or cells: mouse brain homogenate
# T1 sequence (Q62074 1-595): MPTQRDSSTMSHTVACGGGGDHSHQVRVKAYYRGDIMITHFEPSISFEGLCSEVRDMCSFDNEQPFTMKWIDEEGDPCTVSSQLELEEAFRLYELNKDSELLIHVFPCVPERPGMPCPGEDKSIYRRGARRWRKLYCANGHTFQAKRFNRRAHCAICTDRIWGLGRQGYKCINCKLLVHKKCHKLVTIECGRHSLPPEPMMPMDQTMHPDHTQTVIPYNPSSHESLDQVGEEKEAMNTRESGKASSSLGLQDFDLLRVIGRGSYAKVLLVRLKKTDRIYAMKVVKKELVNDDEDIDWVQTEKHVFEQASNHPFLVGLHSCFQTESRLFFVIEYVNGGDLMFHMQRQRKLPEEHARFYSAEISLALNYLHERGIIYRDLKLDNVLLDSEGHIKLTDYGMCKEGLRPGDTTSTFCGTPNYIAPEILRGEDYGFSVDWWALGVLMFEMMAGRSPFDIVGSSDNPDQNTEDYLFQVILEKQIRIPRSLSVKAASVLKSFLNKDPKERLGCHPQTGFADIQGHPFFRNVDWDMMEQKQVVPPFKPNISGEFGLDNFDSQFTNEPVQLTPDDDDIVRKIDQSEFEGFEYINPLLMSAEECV
# Source text: (§1) Mouse Studies. Brain samples were obtained from normal and insulin-resistant mice and monkeys used previously, and includes mice originally used in studies of insulin signaling and resistance in liver: (a) 4-6 month old C57Bl/6 mice used in studies of high-fat-feeding [USF Vivarium] [6]; 4-6 month-old male C57Bl/6 ob/ob and lean ob+ mice (Jackson Labs, Bar Harbor, Maine); and (c) 10-12 month-old C57Bl/6 Het-MλKO mice [USF Vivarium] [8]. […] Where indicated normal mice were given a single SC injection of saline or saline containing 1.5 mg/kg ICAPP to follow time-related alterations in brain signaling factors. Where indicated, mice were treated intraperitoneally (IP) with insulin (1 U/kg body weight) or vehicle 15-min before euthanization by administration of Xylazine/Ketamine, followed by whole body perfusion with phosphate-buffered saline and rapid removal of brain and other tissues.
# (§2) Tissue Preparations. As described, mouse brains were hemisected sagittally, and one-half was frozen in liquid N2, stored at −80° C., and samples thereof were homogenized in buffer containing 0.25M sucrose, 20 mM Tris/HCl (pH, 7.5), 2 mmol/l EGTA, 2 mM EDTA, 1 mM phenlysulfonoylfluoride (PMSF), 20 μg/ml leupeptin, 10 μg/ml aprotinin, 2 mM Na4P2O7, 2 mM Na3VO4, 2 mM NaF, and 1 μM microcystin, and then supplemented with 1% TritonX-100, 0.6% Nonidet and 150 mM NaCl.
# (§3) Western Analyses. As described, Western analyses were conducted with rabbit antisera or mouse monoclonal antibodies (mMab), using: anti-aPKC (Santa Cruz Biotechnologies, Santa Cruz, CA); anti-phospho-threonine-560/555-PKC-ζ/λ/ι (Invitrogen, Carlsbad, CA); anti-p-serine-256-FoxO1 and anti-FoxO1 (Abnova, Walnut, CA); anti-Akt (mMab), anti-phospho-serine-473-Akt, anti-phospho-serine-9-GSK3P anti-GSK313, anti-phospho-serine-253-FoxO3a, anti-FoxO3a, anti-phospho-serine-256-FoxO1, anti-phospho-serine-193-FoxO4; anti-FoxO1, anti-phospho-serine-2448-mTOR, anti-mTOR, anti-β-amyloid (anti-5-10 kDa-Aβ1-40/42) and anti-amyloid precursor protein (anti-120 kDa-APP) (Cell Signaling Technologies, Danvers, MA); and anti-phospho-serine-202-tau, anti-phospho-threonine-231-tau (Gene Tex, Irvine, CA). Samples from experimental groups were compared on the same blots, and routinely checked with loading controls. Note that: insulin-sensitive 70 kDa aPKC is largely PKC-ζ in mouse brain and orthologous PKC-ι (98% aa homology) in monkey and other primate brains; brain PKC-ζ exists largely as a 50 kDa moiety that, lacking a regulatory domain, is constitutively-active and unresponsive to insulin.
# (§4) Where indicated, mice were randomly treated with insulin (1 unit/kg/bw i.p.) 15 min before being euthanized by administration of xylazine/ketamine, followed by whole-body perfusion with PBS and rapid removal of brain and other tissues.
# [3] = test system: β-secretase (BACE1); test: β-secretase activity (BACE1) in LA1-5s neuroblastoma cells; assay type: cell-based, human; conditions: LA1-5s cells
# Method: (§5) Relative bar values in panel a are mean±SEM of 6 determinations. Asterisks: *, P<0.05; **, P<0.01; ***, P<0.001 (ANOVA). Values in panel b are means of 2-4 determinations.
# (§6) Shown here are Mean±SEM (N=4) values relative to the mean initial basal or insulin-stimulated level of indicated immunoreactive protein/peptide. Asterisks: *, P<0.05; **, P<0.01; ***, P<0.001 (ANOVA).
# (§7) β-Secretase Activity (BACE1; beta-site APP-cleaving enzyme-1). β-Secretase was measured was measured using a kit from Thermo-Fisher.
# [4] = test system: phospho-thr-231-tau; test: phospho-thr-231-tau levels in LA1-5s neuroblastoma cells; assay type: cell-based, human; conditions: LA1-5s cells, metformin alone
# Method: as §6, §3
# [5] = test system: Akt; test: Akt activity in human hepatocytes; assay type: cell-based; conditions: normal human hepatocytes, 100 μM metformin, preliminary studies
# Source text: (§8) Relative values. Mean±SEM (N=4-8). Asterisks: *, P<0.05; **, P<0.01; ***, P<0.001.
# [6] = test system: aPKC; test: aPKC activity in LA1-5s neuroblastoma cells; assay type: cell-based, human
# [7] = test system: Aβ1-40/42; test: Aβ1-40/42 levels in LA1-5s neuroblastoma cells; assay type: cell-based, human; conditions: for effect on levels of Aβ1-40/42: LA1-5s cells
# Method: as §5, §6, §3
# [8] = test system: SREBP-1c, FAS, ACC, PEPCK, G6Pase, and PGC-1α; test: expression of lipogenic and gluconeogenic enzymes in human hepatocytes; assay type: cell-based
# Source text: Relative values are Mean±SEM (N=4-8). Asterisks: *, P<0.05; **, P<0.01; ***, P<0.001. ANOVA.
# [9] = test system: aPKC; test: aPKC activity in human hepatocytes; assay type: cell-based; conditions: normal human hepatocytes, 100 μM metformin, preliminary studies
# Source text: as §8
# [10] = test system: Aβ1-40/42; test: brain Aβ1-40/42 peptide levels in mice; assay type: in vivo, mouse; conditions: control mice, insulin 1 unit/kg i.p. 15 min
# Source text: as §1, §2, §3, §4
# [11] = test system: Akt; test: Akt activity in LA1-5s neuroblastoma cells; assay type: cell-based, human; conditions: 200 nM insulin
# Method: as §5, §6, §3
# [12] = test system: Akt substrates, GSK3β and mTOR; test: phosphorylation of Akt substrates in LA1-5s neuroblastoma cells; assay type: cell-based, human; conditions: 200 nM insulin
# Method: as §5, §3
# [13] = test system: Akt; test: brain Akt phosphorylation/activity in mice; assay type: in vivo, mouse; conditions: control mice, insulin 1 unit/kg i.p. 15 min
# Source text: as §1, §2, §3, §4
# [14] = test system: β-secretase (BACE1); test: brain β-secretase activity (BACE1) in mice; assay type: in vivo, mouse; conditions: normal WT mice, insulin 1 U/kg i.p. 15 min
# Source text: Mouse Studies. Brain samples were obtained from normal and insulin-resistant mice and monkeys used previously, and includes mice originally used in studies of insulin signaling and resistance in liver: (a) 4-6 month old C57Bl/6 mice used in studies of high-fat-feeding [USF Vivarium] [6]; 4-6 month-old male C57Bl/6 ob/ob and lean ob+ mice (Jackson Labs, Bar Harbor, Maine); and (c) 10-12 month-old C57Bl/6 Het-MλKO mice [USF Vivarium] [8]. Males and females were comparably present in experimental groups, and sex didn't appreciably alter combined findings. Hepatic alterations, clinical characteristics and ameliorating effects of liver-selective aPKC inhibitors were reported previously. […] Where indicated, Het-MλKO were injected subcutaneously (SC) once daily for 8 days with saline or 1H-imidazole-4-carboxamide,5-amino]-(2,3-dihydroxy-4-[(phosphono-oxy)methyl]cyclopentane-[1R-(1a,2b,3b,4a)] (ICAPP) 0.4 mg/kg body weight) in saline, to inhibit hepatic aPKC, and thus diminish aPKC-dependent expression of hepatic gluconeogenic and lipogenic enzymes, and thereby reduce serum insulin levels to near-normal. Where indicated normal mice were given a single SC injection of saline or saline containing 1.5 mg/kg ICAPP to follow time-related alterations in brain signaling factors. Where indicated, mice were treated intraperitoneally (IP) with insulin (1 U/kg body weight) or vehicle 15-min before euthanization by administration of Xylazine/Ketamine, followed by whole body perfusion with phosphate-buffered saline and rapid removal of brain and other tissues.
# as §2, §7
# [15] = neuroblastoma cells, 200 nM insulin, 1 hour
compound,measurement,setting,value
"O=C(O)CC([S-])C(=O)O.[Au+] (stereo not drawn) [ATM, aurothiomalate]",serum insulin levels / hyperinsulinemia,"[1]; Het-MλKO mice, reported previously",fully/sufficiently improved; also recorded: reduced serum insulin levels to normal
"NC(=O)c1ncn([C@@H]2C[C@H](CO)[C@@H](O)[C@H]2O)c1N [ICAP, reference compound]",acute effects of insulin on CNS aPKC activity,"[2]; normal mice, doses employed in the initial studies",unable to diminish acute effects of insulin on CNS aPKC activity
same,"hyperinsulinemia, with regard to hyperactivation of CNS Akt and aPKC","[1]; HFF and ob/ob mice, doses effective on hepatic aPKC, initial studies",did not improve hyperinsulinemia sufficiently
CN(C)C(=N)N=C(N)N [metformin],effect on β-secretase activity,[3]; metformin alone,increase
same,effect on levels of phospho-thr-231-tau,[4],increase
same,Akt activation and action,[5],impairments in Akt activation and action
same,effect on aPKC activity,"[6]; LA1-5s cells, metformin alone",increase
same,effect on levels of Aβ1-40/42,[7]; metformin alone,increase
same,SREBP-1c activity and expression of lipogenic enzymes,"[8]; hepatocytes, metformin",increases in activity of SREBP-1c and SREBP-1c-dependent expression of lipogenic enzymes
same,gluconeogenic enzyme expression,"[8]; normal human hepatocytes, 100 μM metformin, preliminary studies",increases in gluconeogenic enzyme expression
same,aPKC activity,[9],increases in aPKC activity
insulin,brain aPKC activity,"[2]; control mice, insulin 1 unit/kg i.p. 15 min",provoked increases
same,brain Aβ1-40/42 peptide levels,[10],increased
same,effect on Akt activity,"[11]; LA1-5s cells, 24 hours",elicited increases
same,effect on Akt activity,"[11]; neuroblastoma cells, 1 hour",can increase
same,effect on activity of β-secretase,"[3]; 200 nM insulin, 24 hours",elicited increases
same,"effect on phosphorylation of Akt substrates, GSK3β and mTOR","[12]; LA1-5s cells, 24 hours",elicited increases
same,effect on Akt-dependent GSK3β and mTOR phosphorylation,"[12]; neuroblastoma cells, 1 hour",can increase
same,brain Akt activity,[13],provoked increases
same,effect on aPKC activity,"[6]; LA1-5s cells, 200 nM insulin, 24 hours",elicited increases
same,effect on aPKC activity,[6]; [15],can increase
same,brain β-secretase activity (BACE1),[14],accompanied by increases
same,effect on levels of Aβ1-40/42,"[7]; 200 nM insulin, 24 hours",elicited increases
same,effect on Aβ1-40/42 peptide levels,[7]; [15],can increase
